Laboratory results from ChEMBL document CHEMBL1201862, “PubChem BioAssay data set” (2004).
Active and inactive are the calls of the source.

Key:
Type in all cases: functional
[1] = NIH-3T3 fibroblast cytotoxicity, dose response, cytotoxicity control, cell-based, fluorescence, Alamar Blue, secondary assay (AID 2327);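 further: NIH-3T3 mouse fibroblasts cultured with fluconazole at 8 µg/mL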
[2] = target: T1, Replicative DNA helicase DnaB (Mycobacterium tuberculosis, UniProt P9WMR3); assay: DnaB intein splicing inhibitors, dose response, biochemical, cell-free fluorescence (AID 449749)
T1 sequence (P9WMR3 whole entry): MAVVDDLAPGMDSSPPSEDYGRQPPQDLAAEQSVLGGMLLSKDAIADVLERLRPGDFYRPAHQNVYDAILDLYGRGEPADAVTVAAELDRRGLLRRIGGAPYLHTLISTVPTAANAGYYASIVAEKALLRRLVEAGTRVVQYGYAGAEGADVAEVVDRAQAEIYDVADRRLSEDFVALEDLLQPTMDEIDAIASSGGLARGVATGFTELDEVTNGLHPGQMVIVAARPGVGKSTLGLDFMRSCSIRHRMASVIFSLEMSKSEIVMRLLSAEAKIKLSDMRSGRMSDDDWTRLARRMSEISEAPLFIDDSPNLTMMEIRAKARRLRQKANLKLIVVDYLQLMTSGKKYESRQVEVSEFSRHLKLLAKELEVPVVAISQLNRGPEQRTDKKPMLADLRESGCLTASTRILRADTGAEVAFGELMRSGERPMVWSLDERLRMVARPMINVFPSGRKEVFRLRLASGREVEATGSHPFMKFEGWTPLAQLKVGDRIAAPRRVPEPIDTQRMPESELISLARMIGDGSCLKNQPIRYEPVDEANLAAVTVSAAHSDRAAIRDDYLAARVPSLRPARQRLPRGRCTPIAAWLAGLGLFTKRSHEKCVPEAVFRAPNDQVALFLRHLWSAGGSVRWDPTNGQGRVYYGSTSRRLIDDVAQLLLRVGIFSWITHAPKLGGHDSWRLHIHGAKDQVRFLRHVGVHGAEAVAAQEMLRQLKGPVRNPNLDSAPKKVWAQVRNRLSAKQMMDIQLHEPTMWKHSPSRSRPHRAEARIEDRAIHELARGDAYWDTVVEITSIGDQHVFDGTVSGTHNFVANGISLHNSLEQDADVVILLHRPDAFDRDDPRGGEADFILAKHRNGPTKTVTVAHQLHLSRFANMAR

[3] = target: Tyrosine-protein kinase BTK (Homo sapiens, UniProt Q06187)
[4] = target: Tyrosine-protein kinase ABL1 (Homo sapiens, UniProt P00519)
[5] = target: Vascular endothelial growth factor receptor 2 (Homo sapiens, UniProt P35968)
[6] = target: Mitogen-activated protein kinase 12 (Homo sapiens, UniProt P53778);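 further: measured as one member of a kinome-wide kinase profiling panel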
[7] = target: MAP kinase-interacting serine/threonine-protein kinase 2 (Homo sapiens, UniProt Q9HBH9)
[8] = target: Glycogen synthase kinase-3 alpha (Homo sapiens, UniProt P49840);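 further: GSK3A result taken from a broad kinome-wide kinase panel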
[9] = target: Serine/threonine-protein kinase PLK3 (Homo sapiens, UniProt Q9H4B4)
[10] = target: Protein-tyrosine kinase 6 (Homo sapiens, UniProt Q13882)
[11] = target: Lymphokine-activated killer T-cell-originated protein kinase (Homo sapiens, UniProt Q96KB5);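 further: value comes from a kinase panel screen in which TOPK was one of the panel members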
[12] = target: Tyrosine-protein kinase HCK (Homo sapiens, UniProt P08631); assay: Navigating the Kinome. Panel member name: HCK
[13] = target: Dual specificity tyrosine-phosphorylation-regulated kinase 4 (Homo sapiens, UniProt Q9NR20)
[14] = target: Calcium/calmodulin-dependent protein kinase kinase 2 (Homo sapiens, UniProt Q96RR4); assay: Navigating the Kinome. Panel member name: CAMKK2
[15] = target: MAP kinase-activated protein kinase 3 (Homo sapiens, UniProt Q16644);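 further: value comes from a kinome-wide profiling panel in which MAPKAPK3 is one of the panel members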
[16] = target: Tyrosine-protein kinase JAK3 (Homo sapiens, UniProt P52333)
[17] = target: Leukocyte tyrosine kinase receptor (Homo sapiens, UniProt P29376); assay: Navigating the Kinome. Panel member name: LTK
[18] = target: Calcium/calmodulin-dependent protein kinase type II subunit beta (Homo sapiens, UniProt Q13554)
[19] = target: Fibroblast growth factor receptor 3 (Homo sapiens, UniProt P22607)
Aurora kinase A = target: T2, Aurora kinase A (Homo sapiens, UniProt O14965);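 further: value from the Navigating the Kinome kinase panel profiling, panel entry STK6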
T2 sequence (O14965 whole entry): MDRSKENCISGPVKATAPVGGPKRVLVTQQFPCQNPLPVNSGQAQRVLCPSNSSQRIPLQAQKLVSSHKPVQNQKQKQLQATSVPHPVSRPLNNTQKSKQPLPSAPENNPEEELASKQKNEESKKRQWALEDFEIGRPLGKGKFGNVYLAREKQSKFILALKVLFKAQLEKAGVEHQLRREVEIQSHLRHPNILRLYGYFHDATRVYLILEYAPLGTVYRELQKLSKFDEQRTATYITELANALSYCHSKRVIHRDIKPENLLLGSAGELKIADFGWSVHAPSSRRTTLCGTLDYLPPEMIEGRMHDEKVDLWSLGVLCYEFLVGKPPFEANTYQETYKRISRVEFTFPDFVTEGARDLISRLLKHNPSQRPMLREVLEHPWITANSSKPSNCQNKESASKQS

[20] = target: Casein kinase I isoform delta (Homo sapiens, UniProt P48730);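 further: measured as one member (CSNK1D) of a kinome panel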
[21] = target: Tyrosine-protein kinase ITK/TSK (Homo sapiens, UniProt Q08881);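 further: affinity for ITK measured as one member of a broad kinase panel profiling binding across the kinome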
[22] = target: Dual specificity tyrosine-phosphorylation-regulated kinase 1A (Homo sapiens, UniProt Q13627);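 further: measured against DYRK1A as one member of a broad kinome profiling panel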
[23] = target: Maternal embryonic leucine zipper kinase (Homo sapiens, UniProt Q14680)
[24] = target: Serine/threonine-protein kinase Nek2 (Homo sapiens, UniProt P51955)
[25] = target: Leucine-rich repeat serine/threonine-protein kinase 2 (Homo sapiens, UniProt Q5S007);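 further: value from a broad kinome-wide panel profiling study in which LRRK2 was one of the kinases tested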
[26] = target: Platelet-derived growth factor receptor beta (Homo sapiens, UniProt P09619);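 further: value comes from a kinome panel, with PDGFRB tested as one panel member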
[27] = target: MAP/microtubule affinity-regulating kinase 4 (Homo sapiens, UniProt Q96L34); assay: Navigating the Kinome. Panel member name: MARK4
LIM domain kinase 1 = LIM domain kinase 1 (Homo sapiens, UniProt P53667); assay: Navigating the Kinome. Panel member name: LIMK1
Chain of LIM domain kinase 1 (P53667 whole entry, the tested form may be a part): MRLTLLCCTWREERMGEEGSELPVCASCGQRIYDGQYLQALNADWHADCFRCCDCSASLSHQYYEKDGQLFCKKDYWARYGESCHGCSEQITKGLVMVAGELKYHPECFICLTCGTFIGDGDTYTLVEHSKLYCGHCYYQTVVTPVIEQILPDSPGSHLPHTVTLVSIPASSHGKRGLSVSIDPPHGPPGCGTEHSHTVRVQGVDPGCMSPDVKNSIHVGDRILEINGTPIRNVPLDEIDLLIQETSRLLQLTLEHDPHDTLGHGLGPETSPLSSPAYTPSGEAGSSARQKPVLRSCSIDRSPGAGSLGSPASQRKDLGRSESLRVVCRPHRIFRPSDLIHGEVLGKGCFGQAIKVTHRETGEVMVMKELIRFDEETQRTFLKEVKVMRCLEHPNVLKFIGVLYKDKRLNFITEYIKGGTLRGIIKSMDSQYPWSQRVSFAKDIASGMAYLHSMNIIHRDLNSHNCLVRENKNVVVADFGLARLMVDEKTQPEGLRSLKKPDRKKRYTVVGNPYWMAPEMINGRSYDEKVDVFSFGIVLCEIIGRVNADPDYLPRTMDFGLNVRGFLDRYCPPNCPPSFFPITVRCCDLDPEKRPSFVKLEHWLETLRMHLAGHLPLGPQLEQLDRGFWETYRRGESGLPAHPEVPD

Chain of MAP kinase-interacting serine/threonine-protein kinase 2 (Q9HBH9 whole entry): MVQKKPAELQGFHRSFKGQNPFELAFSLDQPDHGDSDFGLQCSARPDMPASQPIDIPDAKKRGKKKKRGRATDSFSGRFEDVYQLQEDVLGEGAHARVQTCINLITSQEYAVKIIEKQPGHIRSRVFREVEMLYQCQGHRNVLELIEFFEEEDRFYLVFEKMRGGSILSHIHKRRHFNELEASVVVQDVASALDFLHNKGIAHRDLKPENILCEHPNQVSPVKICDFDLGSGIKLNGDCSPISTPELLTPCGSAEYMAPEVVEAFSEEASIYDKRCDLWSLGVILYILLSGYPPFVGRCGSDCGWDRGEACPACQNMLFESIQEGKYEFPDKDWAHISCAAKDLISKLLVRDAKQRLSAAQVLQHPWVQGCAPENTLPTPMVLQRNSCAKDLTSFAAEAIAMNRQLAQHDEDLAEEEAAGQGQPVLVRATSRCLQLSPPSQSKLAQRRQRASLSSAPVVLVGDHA
Chain of Dual specificity tyrosine-phosphorylation-regulated kinase 4 (Q9NR20 whole entry): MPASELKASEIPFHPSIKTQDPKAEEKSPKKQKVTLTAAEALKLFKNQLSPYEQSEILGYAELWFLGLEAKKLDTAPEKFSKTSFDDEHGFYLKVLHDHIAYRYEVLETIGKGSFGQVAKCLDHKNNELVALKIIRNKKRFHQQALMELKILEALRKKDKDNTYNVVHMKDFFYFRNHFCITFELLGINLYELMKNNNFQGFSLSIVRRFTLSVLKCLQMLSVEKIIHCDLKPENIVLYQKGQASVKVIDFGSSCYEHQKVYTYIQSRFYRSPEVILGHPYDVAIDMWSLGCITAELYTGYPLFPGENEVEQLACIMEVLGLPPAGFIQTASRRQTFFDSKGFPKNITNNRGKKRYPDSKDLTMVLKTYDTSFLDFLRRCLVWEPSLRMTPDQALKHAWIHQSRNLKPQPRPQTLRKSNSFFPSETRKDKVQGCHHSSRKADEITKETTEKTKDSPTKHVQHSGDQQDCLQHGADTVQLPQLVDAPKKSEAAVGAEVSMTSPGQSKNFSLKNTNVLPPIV
Chain of Calcium/calmodulin-dependent protein kinase type II subunit beta (Q13554 whole entry): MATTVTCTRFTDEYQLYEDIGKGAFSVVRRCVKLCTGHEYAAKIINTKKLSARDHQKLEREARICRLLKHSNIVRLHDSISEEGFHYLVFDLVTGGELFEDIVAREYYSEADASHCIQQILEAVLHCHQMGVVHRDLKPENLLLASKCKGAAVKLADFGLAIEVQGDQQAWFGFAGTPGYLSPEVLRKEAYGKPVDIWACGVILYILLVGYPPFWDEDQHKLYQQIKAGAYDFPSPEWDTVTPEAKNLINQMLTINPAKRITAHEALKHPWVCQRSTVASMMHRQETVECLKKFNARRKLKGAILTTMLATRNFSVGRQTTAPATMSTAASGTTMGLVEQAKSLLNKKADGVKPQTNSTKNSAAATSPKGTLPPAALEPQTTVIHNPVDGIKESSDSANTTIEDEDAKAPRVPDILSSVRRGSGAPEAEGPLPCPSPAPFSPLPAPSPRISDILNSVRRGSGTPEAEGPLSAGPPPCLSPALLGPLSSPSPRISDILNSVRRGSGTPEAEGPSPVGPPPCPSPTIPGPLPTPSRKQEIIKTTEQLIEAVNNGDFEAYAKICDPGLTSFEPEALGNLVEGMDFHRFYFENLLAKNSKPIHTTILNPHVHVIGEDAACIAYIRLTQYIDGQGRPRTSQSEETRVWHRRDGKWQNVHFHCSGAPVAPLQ
Chain of Vascular endothelial growth factor receptor 2 (P35968 whole entry): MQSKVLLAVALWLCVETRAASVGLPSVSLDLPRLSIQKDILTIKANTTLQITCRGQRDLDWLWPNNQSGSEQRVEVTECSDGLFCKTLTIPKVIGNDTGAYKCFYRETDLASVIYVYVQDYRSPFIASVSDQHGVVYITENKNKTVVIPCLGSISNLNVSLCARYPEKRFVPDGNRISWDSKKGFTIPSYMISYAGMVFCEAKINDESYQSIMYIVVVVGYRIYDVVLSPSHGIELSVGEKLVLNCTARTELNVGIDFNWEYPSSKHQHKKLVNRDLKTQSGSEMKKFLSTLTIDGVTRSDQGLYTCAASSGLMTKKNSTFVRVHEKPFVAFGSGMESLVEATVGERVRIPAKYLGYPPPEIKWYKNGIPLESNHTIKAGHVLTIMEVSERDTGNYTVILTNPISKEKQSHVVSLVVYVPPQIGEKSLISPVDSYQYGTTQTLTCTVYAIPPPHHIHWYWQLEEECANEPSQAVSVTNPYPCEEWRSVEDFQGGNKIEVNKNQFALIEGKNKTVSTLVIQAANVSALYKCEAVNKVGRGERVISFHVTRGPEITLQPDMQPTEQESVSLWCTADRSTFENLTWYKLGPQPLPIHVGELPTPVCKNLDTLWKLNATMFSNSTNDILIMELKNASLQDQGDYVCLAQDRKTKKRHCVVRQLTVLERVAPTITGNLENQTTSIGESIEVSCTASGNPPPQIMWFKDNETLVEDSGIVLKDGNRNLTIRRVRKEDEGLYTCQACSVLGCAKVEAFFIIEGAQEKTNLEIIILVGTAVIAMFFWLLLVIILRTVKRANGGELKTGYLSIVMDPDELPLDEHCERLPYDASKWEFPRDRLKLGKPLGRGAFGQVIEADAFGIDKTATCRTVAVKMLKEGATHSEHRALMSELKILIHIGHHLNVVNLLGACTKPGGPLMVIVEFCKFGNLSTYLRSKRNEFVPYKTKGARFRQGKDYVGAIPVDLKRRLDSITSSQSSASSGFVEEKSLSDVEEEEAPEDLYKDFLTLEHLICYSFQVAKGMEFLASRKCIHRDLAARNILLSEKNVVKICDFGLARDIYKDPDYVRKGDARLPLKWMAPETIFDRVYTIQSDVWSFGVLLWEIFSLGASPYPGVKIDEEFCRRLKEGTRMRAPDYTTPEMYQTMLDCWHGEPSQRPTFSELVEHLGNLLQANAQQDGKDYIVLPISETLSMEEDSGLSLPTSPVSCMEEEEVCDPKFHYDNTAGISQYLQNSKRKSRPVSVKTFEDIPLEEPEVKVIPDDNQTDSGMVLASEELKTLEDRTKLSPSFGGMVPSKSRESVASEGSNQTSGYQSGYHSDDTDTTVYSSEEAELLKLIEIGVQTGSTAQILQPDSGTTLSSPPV
Chain of Tyrosine-protein kinase BTK (Q06187 whole entry): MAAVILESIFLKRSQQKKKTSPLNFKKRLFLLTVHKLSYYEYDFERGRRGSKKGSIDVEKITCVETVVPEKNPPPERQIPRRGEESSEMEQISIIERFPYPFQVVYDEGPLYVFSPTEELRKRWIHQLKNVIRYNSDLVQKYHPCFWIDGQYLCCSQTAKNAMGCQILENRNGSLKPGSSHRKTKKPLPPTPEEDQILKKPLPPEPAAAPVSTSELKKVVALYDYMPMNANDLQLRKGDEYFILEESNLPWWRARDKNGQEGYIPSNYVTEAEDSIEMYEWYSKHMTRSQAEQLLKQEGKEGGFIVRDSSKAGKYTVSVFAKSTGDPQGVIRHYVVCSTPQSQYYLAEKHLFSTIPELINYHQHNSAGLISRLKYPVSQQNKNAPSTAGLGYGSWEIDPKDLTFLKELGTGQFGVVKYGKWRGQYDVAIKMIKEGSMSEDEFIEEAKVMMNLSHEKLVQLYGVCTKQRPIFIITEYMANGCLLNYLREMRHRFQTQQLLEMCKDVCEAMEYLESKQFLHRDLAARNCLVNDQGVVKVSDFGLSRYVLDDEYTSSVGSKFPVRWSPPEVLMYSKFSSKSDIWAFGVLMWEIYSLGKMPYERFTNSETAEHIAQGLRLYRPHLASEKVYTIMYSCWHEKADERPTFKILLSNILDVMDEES
Chain of Serine/threonine-protein kinase PLK3 (Q9H4B4 whole entry): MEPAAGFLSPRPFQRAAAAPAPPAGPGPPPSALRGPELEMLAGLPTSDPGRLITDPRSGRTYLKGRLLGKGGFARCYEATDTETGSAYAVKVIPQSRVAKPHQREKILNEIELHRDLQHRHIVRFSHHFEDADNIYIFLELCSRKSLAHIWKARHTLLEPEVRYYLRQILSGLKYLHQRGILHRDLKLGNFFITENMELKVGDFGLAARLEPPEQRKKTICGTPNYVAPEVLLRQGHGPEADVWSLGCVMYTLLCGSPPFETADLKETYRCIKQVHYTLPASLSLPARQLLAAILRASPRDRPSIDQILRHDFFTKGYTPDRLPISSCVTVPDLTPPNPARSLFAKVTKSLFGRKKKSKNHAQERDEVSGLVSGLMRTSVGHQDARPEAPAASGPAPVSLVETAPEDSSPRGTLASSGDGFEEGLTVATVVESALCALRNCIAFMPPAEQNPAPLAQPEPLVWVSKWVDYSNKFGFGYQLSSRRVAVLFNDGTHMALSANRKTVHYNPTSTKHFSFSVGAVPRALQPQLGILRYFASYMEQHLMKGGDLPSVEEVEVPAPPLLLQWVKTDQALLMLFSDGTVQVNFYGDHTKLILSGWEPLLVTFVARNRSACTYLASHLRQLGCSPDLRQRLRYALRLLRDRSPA

CCCn1nc([N+](=O)[O-])c(C(C#N)c2nc3ccccc3s2)c(Cl)c1=O (centres undefined)
EC50 [1]: > 160000 nM (inactive) | AC50 [2]: 4720 nM (active)

NCCCn1cc(-c2cc(-c3cc4ccccc4s3)c3[nH]ncc3c2)c2nc(N)ncc21
Ki [3]: > 3980 nM (inactive) | Ki [4]: > 2510 nM (inactive) | Ki [5]: > 5010 nM (inactive) | Ki [6]: 1260 nM (active) | Ki [7]: 25.1 nM (active) | Ki [8]: 126 nM (active) | Ki [9]: > 7940 nM (inactive) | Ki [10]: > 2510 nM (inactive) | Ki [11]: 2510 nM (active) | Ki [12]: > 3160 nM (inactive) | Ki [13]: 794 nM (active) | Ki [14]: > 2510 nM (inactive) | Ki [15]: 1580 nM (active) | Ki [16]: > 3980 nM (inactive) | Ki [17]: > 2510 nM (inactive) | Ki [18]: 3160 nM (active) | Ki [19]: > 2000 nM (inactive) | Ki (Aurora kinase A): > 1580 nM (inactive) | Ki [20]: 126 nM (active) | Ki [21]: > 1580 nM (inactive) | Ki [22]: 1000 nM (active) | Ki [23]: 251 nM (active) | Ki [24]: > 10000 nM (inactive) | Ki [25]: 251 nM (active) | Ki [26]: > 2000 nM (inactive) | Ki [27]: 7.94 nM (active) | Ki (LIM domain kinase 1): 1260 nM (active)
